Experimental data from patent publication US10125121B2, “FYN kinase inhibitors” (ROTTAPHARM BIOTECH S.R.L., priority 2015, dated 2018).

Columns and labels:
[1] = molecular target: active FYN (human recombinant, 62.7 kDa) (Homo sapiens, UniProt P06241); test: In vitro kinase assay (Z′-LYTE FRET); type: biochemical; conditions: read-out: IC50(nM) FYN INHIBITION
[2] = tested on: NF-kB activation in JB6 CI 41-5a (P+) cells; test: Gene reporter (GR) assay, NF-kB luciferase after TNFα stimulation; type: cell-based, murine; conditions: Mus musculus; 1 h pre-treatment, 2 ng/ml TNFα for 4 h; read-out: IC50(nM) GR Inhibition
Text: To determine if the compounds of the invention were active also in a cellular model, a gene reporter assay was established in a cell line (JB6 CI 41-5a (P+)) know to activate Fyn kinase via an inflammatory stimuli (TNFα). GR assay measures the activation of the nuclear transcription factor NF-kB, situated down-stream the Fyn activation pathway. Products active in this analysis has to penetrate in the cell and inhibit the activation pathway of NF-kB.
The murine epithelial cell line JB6 CI 41-5a (P+) (ATCC® Cat. # CRL-2010) was stably transfected with the pGL4.32[luc2P/NFkB-RE/Hygro] vector (Promega). Clonal selection was achieved by limiting dilution in MEM (+Earle's BSS+1.5 g/l sodium bicarbonate+0.1 mM NEAA)+GlutaMAX™-I, +1 mM sodium pyruvate, +5% FBS+80 μg/ml Hygromycin B. The clones were tested for their response to TNFα stimulus. The obtained transfected cells (JB6(P+) NFkB-RE-luc2P T3-C10) contained a firefly luciferase gene (luc2P) under the control of minimal TATA promoter with multiple Nuclear Factor-kB response elements (NFkB-REs). These NFkB-REs are DNA binding sequences for the NF-kB transcription factor.
JB6(P+) NFkB-RE-luc2P T3-C10 cells were used for the analysis of NF-kB activity modulation, after TNFα stimulation, by Fyn-inhibitors (Hwang et al.; Biochem. Pharmacol. 2009, 77 (7):1213-22).
6000 cells/well were plated in a 96× well plate. After 24 h new medium without antibiotics was given. After further 24 h the cells were pre-treated with the different compounds for 1 h and then stimulated with 2 ng/ml TNFα for 4 h. In each experiments two positive standards were always used, and each tested condition was analyzed in quadruplicate.
The luciferase analysis was performed with ONE-Glo™+ToxLuciferase Reporter and Cell Viability Assay kit (Promega). This assay combined luciferase assay chemistry with a cell viability marker to better understand reporter gene expression in the context of cell health. The assay uses a two-step process. The first part of the assay was a non-lytic fluorescence assay (CellTiter-Fluor™ Cell Viability Assay) that measured the relative number of live cells in a culture population, as it measures a conserved and constitutive protease activity within live cells. The live-cell protease activity was restricted to intact viable cells and was measured using a fluorogenic, cell-permeant peptide substrate (glycyl-phenylalanyl-aminofluorocoumarin; GF-AFC). The generated fluorescent signal, proportional to the number of living cells, was measured with EnVision microplate reader (PerkinElmer) using an excitation wavelength of 400 nm and emission wavelength of 500 nm.
The second part of the assay uses the ONE-Glo™ Luciferase Assay System to quantify firefly luciferase reporter gene expression. The ONE-Glo™ Assay contained a fluoro-luciferin substrate, more tolerant to sample components than standard luciferase assay reagents. Luminescence was measured with EnVision microplate reader (PerkinElmer).
Compounds of Formula (I) were tested for their capacity to penetrate into the cell and inhibit the activation pathway of NF-kB.

BLK = BLK (Homo sapiens, UniProt P51451); test: Kinase selectivity panel by Cerep
Chain of BLK (P51451 whole entry): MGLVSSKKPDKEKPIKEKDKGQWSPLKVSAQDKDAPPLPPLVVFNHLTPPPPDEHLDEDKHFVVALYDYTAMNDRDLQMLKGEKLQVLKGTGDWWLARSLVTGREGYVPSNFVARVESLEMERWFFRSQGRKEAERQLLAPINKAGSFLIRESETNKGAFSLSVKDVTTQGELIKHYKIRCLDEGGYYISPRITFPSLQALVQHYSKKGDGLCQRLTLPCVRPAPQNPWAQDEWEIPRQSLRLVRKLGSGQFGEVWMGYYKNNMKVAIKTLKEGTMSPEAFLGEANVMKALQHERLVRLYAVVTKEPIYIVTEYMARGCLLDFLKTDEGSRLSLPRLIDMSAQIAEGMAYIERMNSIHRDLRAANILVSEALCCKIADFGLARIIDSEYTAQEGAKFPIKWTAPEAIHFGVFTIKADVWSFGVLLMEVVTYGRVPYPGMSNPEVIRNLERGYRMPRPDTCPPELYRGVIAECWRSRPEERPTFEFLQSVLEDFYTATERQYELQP

Chain of active FYN (human recombinant, 62.7 kDa) (P06241 whole entry): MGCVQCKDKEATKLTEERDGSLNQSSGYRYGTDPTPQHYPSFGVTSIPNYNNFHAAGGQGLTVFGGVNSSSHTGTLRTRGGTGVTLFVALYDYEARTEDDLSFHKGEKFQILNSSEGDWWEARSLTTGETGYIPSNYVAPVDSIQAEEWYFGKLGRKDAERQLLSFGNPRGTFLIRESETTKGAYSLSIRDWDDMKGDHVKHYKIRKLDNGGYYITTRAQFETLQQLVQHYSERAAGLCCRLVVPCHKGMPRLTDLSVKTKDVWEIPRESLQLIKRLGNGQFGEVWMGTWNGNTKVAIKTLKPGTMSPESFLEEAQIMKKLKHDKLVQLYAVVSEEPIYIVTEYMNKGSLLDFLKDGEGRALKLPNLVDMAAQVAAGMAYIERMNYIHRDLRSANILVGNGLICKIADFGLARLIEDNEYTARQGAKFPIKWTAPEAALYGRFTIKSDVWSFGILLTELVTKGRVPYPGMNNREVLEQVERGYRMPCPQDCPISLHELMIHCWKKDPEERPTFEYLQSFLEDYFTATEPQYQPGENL

With O=C(Nc1ccc(CN2CCN(c3nccc(Nc4cc(C5CC5)[nH]n4)n3)CC2)cc1)c1ccccc1C(F)(F)F [Compound 2, N-(4-((4-(4-((5-cyclopropyl-1H-pyrazol-3-yl)amino)pyrimidin-2-yl)piperazin-1-yl)methyl)phenyl)-2-(trifluoromethyl)-benzamide] as the compound, how does the IC50 [1] read?
Its IC50 is 9 nM.

What about the IC50 [2] of the same compound?
Its IC50 is 190 nM.

What about the IC50 (BLK) of the same compound?
The IC50 was 0.48 µM.
